In patent US20250026745A1 (Bluejay Therapeutics, Inc., priority 2023, published 2025):

These molecules were tested against recombinant 17β-HSD13 protein (Homo sapiens (Human), UniProt Q7Z5P4) (assay: 17β-HSD13 biochemical assay (NAD+/NADH Glo chemiluminescence)). Details: 17β-HSD13 50 nM, NAD+ 10 mM, β-estradiol 20 μM, 2 hours room temperature.
Description: 17β-HSD13 biochemical assays are generically described in patents WO 2022/020730, WO 2021/003295, and WO 2023/023310. More specifically, recombinant 17β-HSD13 protein was assayed in a buffer containing 200 mM Tris pH 7.5, 0.01% Triton X-100, and 0.02% BSA into a 384-well assay plate. Compounds were incubated with 17β-HSD13 (final 50 nM) and NAD+ (final 10 mM) at room temperature for 1 h prior to substrate addition. The assay reaction was then initiated by addition of β-estradiol (final 20 μM), and the reaction mixture was incubated for 2 hours at room temperature. Product formation was detected with chemiluminescence by adding equal volume of NAD+/NADH Glo reagent (Promega, #G9062) and read on a PHERAstar microplate reader (BMG LABTECH). IC50 values were determined with GraphPad Prism®, where log-transformed concentration values and the inhibition data were fitted to a four-parameter logistic equation. Y=Bottom+(Top−Bottom)/(1+10^((Log IC50−X)*HillSlope)). The original, % control, or % inhibition data are represented by Y along with their minimal (Bottom) and maximal (Top) values. The inhibitor concentration is represented by X, IC50 is the concentration at 50% maximal value, and Hill Slope is the slope factor.

Sequence of recombinant 17β-HSD13 protein (Q7Z5P4 20-300): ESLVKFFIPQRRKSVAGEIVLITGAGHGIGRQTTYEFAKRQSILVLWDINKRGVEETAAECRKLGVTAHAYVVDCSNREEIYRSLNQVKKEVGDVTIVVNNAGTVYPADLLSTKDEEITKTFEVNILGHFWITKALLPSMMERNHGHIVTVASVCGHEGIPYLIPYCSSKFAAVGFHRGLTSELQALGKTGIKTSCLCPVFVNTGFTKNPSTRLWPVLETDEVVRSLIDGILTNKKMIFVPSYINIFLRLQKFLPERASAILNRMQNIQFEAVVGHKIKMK

Row | Molecule | IC50
1 | O=C1N(Cc2ccccc2)C(=O)C2(CC2)N1Cc1nnc(-c2cc(C3CC3)c(F)c(O)c2F)s1 [Compound I-63, 6-benzyl-4-((5-(5-cyclopropyl-2,4-difluoro-3-hydroxyphenyl)-1,3,4-thiadiazol-2-yl)methyl)-4,6-diazaspiro[2.4]heptane-5,7-dione] | 18 nM
2 | O=C1N(Cc2ccccc2)C(=O)C2(CC2)N1Cc1nnc(-c2cc(C(F)(F)F)c(F)c(O)n2)s1 [Compound I-61, 6-benzyl-4-((5-(5-fluoro-6-hydroxy-4-(trifluoromethyl)pyridin-2-yl)-1,3,4-thiadiazol-2-yl)methyl)-4,6-diazaspiro[2.4]heptane-5,7-dione] | 505 nM
3 | CCN1C(=O)N(Cc2nnc(-c3ccc(F)c(O)c3F)s2)C2(CCC2)C1=O [Compound I-1, 5-((5-(2,4-difluoro-3-hydroxyphenyl)-1,3,4-thiadiazol-2-yl)methyl)-7-ethyl-5,7-diazaspiro[3.4]octane-6,8-dione] | 56.7 nM
4 | CCN1C(=O)N(Cc2nnc(-c3cc(C(F)(F)F)cc(O)c3Cl)s2)C2(CC2)C1=O [Compound I-13, 4-((5-(2-chloro-3-hydroxy-5-(trifluoromethyl)phenyl)-1,3,4-thiadiazol-2-yl)methyl)-6-ethyl-4,6-diazaspiro[2.4]heptane-5,7-dione] | 13.8 ± 2.2 nM
5 | O=C1N(CC(F)(F)F)C(=O)C2(CC2)N1Cc1nnc(-c2ccc(Cl)c(O)c2Cl)s1 [Compound I-17, 4-((5-(2,4-dichloro-3-hydroxyphenyl)-1,3,4-thiadiazol-2-yl)methyl)-6-(2,2,2-trifluoroethyl)-4,6-diazaspiro[2.4]heptane-5,7-dione] | 106 nM
6 | C[C@H](c1ccccc1)N1C(=O)N(Cc2nnc(-c3ccc(F)c(O)n3)s2)C2(CC2)C1=O [Compound I-79, (R)-4-((5-(5-fluoro-6-hydroxypyridin-2-yl)-1,3,4-thiadiazol-2-yl)methyl)-6-(1-phenylethyl)-4,6-diazaspiro[2.4]heptane-5,7-dione] | 122 nM
7 | O=C1N(Cc2ccccc2)C(=O)C2(CC2)N1Cc1nnc(-c2ccc(Cl)c(O)c2Cl)s1 [Compound I-36, 6-benzyl-4-((5-(2,4-dichloro-3-hydroxyphenyl)-1,3,4-thiadiazol-2-yl)methyl)-4,6-diazaspiro[2.4]heptane-5,7-dione] | 38.5 nM
8 | O=C1N(Cc2ncccn2)C(=O)C2(CC2)N1Cc1nnc(-c2ccc(F)c(O)c2F)s1 [Compound I-21, 4-((5-(2,4-difluoro-3-hydroxyphenyl)-1,3,4-thiadiazol-2-yl)methyl)-6-(pyrimidin-2-ylmethyl)-4,6-diazaspiro[2.4]heptane-5,7-dione] | 620 nM
9 | CCN1C(=O)N(Cc2nnc(-c3ccc(F)c(O)n3)s2)C2(CC2)C1=O [Compound I-75, 6-ethyl-4-((5-(5-fluoro-6-hydroxypyridin-2-yl)-1,3,4-thiadiazol-2-yl)methyl)-4,6-diazaspiro[2.4]heptane-5,7-dione] | 1360 nM
10 | O=C1N([C@@H](c2ccc(F)cc2F)C(F)(F)F)C(=O)C2(CC2)N1Cc1nnc(-c2ccc(F)c(O)c2F)s1 [Compound I-90B, (S)-4-((5-(2,4-difluoro-3-hydroxyphenyl)-1,3,4-thiadiazol-2-yl)methyl)-6-(1-(2,4-difluorophenyl)-2,2,2-trifluoroethyl)-4,6-diazaspiro[2.4]heptane-5,7-dione] | 6.53 nM
11 | O=C1N(C(c2ccc(F)cc2F)C(F)(F)F)C(=O)C2(CC2)N1Cc1nnc(-c2ccc(F)c(O)c2Cl)s1 (single isomer, unassigned) [Compound I-54B] | 8.43 nM
12 | O=C1N(CC(F)(F)F)C(=O)C2(CC2)N1Cc1nnc(-c2nc(C(F)(F)F)c(F)c(O)c2F)s1 [Compound I-58, 4-((5-(3,5-difluoro-4-hydroxy-6-(trifluoromethyl)pyridin-2-yl)-1,3,4-thiadiazol-2-yl)methyl)-6-(2,2,2-trifluoroethyl)-4,6-diazaspiro[2.4]heptane-5,7-dione] | 293 nM
13 | CC(C)(C)N1C(=O)N(Cc2nnc(-c3ccc(F)c(O)n3)s2)C2(CC2)C1=O [Compound I-81, 6-(tert-butyl)-4-((5-(5-fluoro-6-hydroxypyridin-2-yl)-1,3,4-thiadiazol-2-yl)methyl)-4,6-diazaspiro[2.4]heptane-5,7-dione] | 602 nM
14 | O=C1N(CC(F)F)C(=O)C2(CC2)N1Cc1nnc(-c2ccc(F)c(O)c2F)s1 [Compound I-92, 4-((5-(2,4-difluoro-3-hydroxyphenyl)-1,3,4-thiadiazol-2-yl)methyl)-6-(2,2-difluoroethyl)-4,6-diazaspiro[2.4]heptane-5,7-dione] | 14.3 nM
15 | O=C1N(CC(F)(F)F)C(=O)C2(CC2)N1Cc1nnc(-c2cc(C3CC3)c(F)c(O)c2F)s1 [Compound I-62, 4-((5-(5-cyclopropyl-2,4-difluoro-3-hydroxyphenyl)-1,3,4-thiadiazol-2-yl)methyl)-6-(2,2,2-trifluoroethyl)-4,6-diazaspiro[2.4]heptane-5,7-dione] | 84.9 nM
16 | O=C1N(CCC(F)(F)F)C(=O)C2(CC2)N1Cc1nnc(-c2ccc(F)c(O)c2F)s1 [Compound I-29, 4-((5-(2,4-difluoro-3-hydroxyphenyl)-1,3,4-thiadiazol-2-yl)methyl)-6-(3,3,3-trifluoropropyl)-4,6-diazaspiro[2.4]heptane-5,7-dione] | 18.6 nM
17 | O=C1N(C(c2ccc(F)cc2F)C(F)(F)F)C(=O)C2(CC2)N1Cc1nnc(-c2ccc(F)c(O)n2)s1 (stereo not drawn) [Compound I-89, 6-(1-(2,4-difluorophenyl)-2,2,2-trifluoroethyl)-4-((5-(5-fluoro-6-hydroxypyridin-2-yl)-1,3,4-thiadiazol-2-yl)methyl)-4,6-diazaspiro[2.4]heptane-5,7-dione] | 15.6 nM
18 | CCN1C(=O)N(Cc2nnc(-c3ccc(Cl)c(O)c3F)s2)C2(CC2)C1=O [Compound I-23, 4-[[5-(4-chloro-2-fluoro-3-hydroxy-phenyl)-1,3,4-thiadiazol-2-yl]methyl]-6-ethyl-4,6-diazaspiro[2.4]heptane-5,7-dione] | 78.8 nM
19 | O=C1N(Cc2nnc(-c3ccc(F)c(O)n3)s2)C2(CC2)C(=O)N1C1(c2ccccc2)CC1 [Compound I-104, 4-((5-(5-fluoro-6-hydroxypyridin-2-yl)-1,3,4-thiadiazol-2-yl)methyl)-6-(1-phenylcyclopropyl)-4,6-diazaspiro[2.4]heptane-5,7-dione] | 176 nM
20 | O=C1N(Cc2ccc(F)cc2F)C(=O)C2(CC2)N1Cc1nnc(-c2ccc(F)c(O)c2Cl)s1 [Compound I-33, 4-((5-(2-chloro-4-fluoro-3-hydroxyphenyl)-1,3,4-thiadiazol-2-yl)methyl)-6-(2,4-difluorobenzyl)-4,6-diazaspiro[2.4]heptane-5,7-dione] | 8.83 nM
21 | O=C1N(Cc2nnc(-c3ccc(F)c(O)c3F)s2)C2(CC2)C(=O)N1C1(C(F)(F)F)CC1 [Compound I-87, 4-((5-(2,4-difluoro-3-hydroxyphenyl)-1,3,4-thiadiazol-2-yl)methyl)-6-(1-(trifluoromethyl)cyclopropyl)-4,6-diazaspiro[2.4]heptane-5,7-dione] | 11.3 nM
22 | (R)-4-((5-(2,4-difluoro-3- hydroxyphenyl)-1,3,4-thiadiazol-2- yl)methyl)-6-(1-hydroxypropan-2- yl)-4,6-diazaspiro[2.4]heptane-5,7- dione [Compound I-46] | 66 nM
23 | O=C1N(C(c2ccccc2)c2ccccc2)C(=O)C2(CC2)N1Cc1nnc(-c2ccc(F)c(O)c2F)s1 [Compound I-95, 6-benzhydryl-4-((5-(2,4-difluoro-3-hydroxyphenyl)-1,3,4-thiadiazol-2-yl)methyl)-4,6-diazaspiro[2.4]heptane-5,7-dione] | 62 nM
24 | O=C1N(C2CC2)C(=O)C2(CC2)N1Cc1nnc(-c2ccc(F)c(O)c2F)s1 [Compound I-43, 6-cyclopropyl-4-((5-(2,4-difluoro-3-hydroxyphenyl)-1,3,4-thiadiazol-2-yl)methyl)-4,6-diazaspiro[2.4]heptane-5,7-dione] | 18.5 nM
25 | O=C(O)CN1C(=O)N(Cc2nnc(-c3ccc(F)c(O)c3Cl)s2)C2(CC2)C1=O [Compound I-45, 2-(4-((5-(2-chloro-4-fluoro-3-hydroxyphenyl)-1,3,4-thiadiazol-2-yl)methyl)-5,7-dioxo-4,6-diazaspiro[2.4]heptan-6-yl)acetic acid] | 1030 nM
26 | O=C1N(CC(F)(F)F)C(=O)C2(CC2)N1Cc1nnc(-c2cc(C(F)(F)F)c(F)c(O)c2F)s1 [Compound I-56, 4-((5-(2,4-difluoro-3-hydroxy-5-(trifluoromethyl)phenyl)-1,3,4-thiadiazol-2-yl)methyl)-6-(2,2,2-trifluoroethyl)-4,6-diazaspiro[2.4]heptane-5,7-dione] | 12.5 nM
27 | O=C1N(CC(F)(F)F)C(=O)C2(CC2)N1Cc1nnc(-c2cc(C(F)(F)F)cc(O)c2F)s1 [Compound I-39, 4-((5-(2-fluoro-3-hydroxy-5-(trifluoromethyl)phenyl)-1,3,4-thiadiazol-2-yl)methyl)-6-(2,2,2-trifluoroethyl)-4,6-diazaspiro[2.4]heptane-5,7-dione] | 8.45 nM
